The nature of this series: HBD acidity NMR score (ANMR), amide NH shifts in CDCl3 vs DMSO-d6. Type of series: physicochemical. The source says: With this premise, we performed NMR studies to quantify the HBD solvent exposure of the amide protons using the HBD Acidity NMR score (ANMR)[47] and variable temperature studies (vt-NMR).[48] To note, although vt-NMR has originally been developed and applied to the study of peptides,[49] it is, together with the ANMR value, a well-established method for studying the intramolecular hydrogen bonding (IMHB) patterns in systems such as PROTACs[10],[12],[18],[26] as well as in ferrocene structures.[29],[50]−[53]
Considering the assumed flexibility of the ferrocene moiety, we anticipated the amide protons in AS4 next to the ferrocene moiety, i.e., N(3)-H and N(4)-H, to show greater shielding effects in CDCl3 as compared to DMSO-d6, consistently with a preference for the cis conformation. In contrast, in the presence of a strong hydrogen-bond acceptor solvent such as DMSO-d6, the intercalation of polar solvent molecules is likely to disrupt the IMHB, favoring an expanded trans conformation[50] of the substituent chains (Figure 4A). An initial analysis of the ^1H NMR spectra was obtained on samples in deuterated CDCl3 and DMSO-d6. […]
The chemical shift difference between the two solvents (Δδ) can be converted into hydrogen bond acidity (ANMR) for a quantitative assessment of IMHB. […]
Standard NMR experiments were performed at 298 K, while variable-temperature NMR experiments recorded spectra across a temperature range from 298 K to 328 K allowing a sufficient temperature equilibration time (10–15 min) before signal acquisition. All NOESY spectra for conformational analysis as well as the assignment spectra in methanol-d 4 were recorded on a 500 MHz Bruker Avance III equipped with a 5 mm QCI cryogenic probe. NOESY spectra were obtained from a sample at 1.25 mM in CDCl3 and 1.25 mM in methanol-d4, recorded at 298 K, using 16 transients, 1024 points in the direct dimension and 512 points in the indirect dimension, a relaxation delay of 1.5 s, and a mixing time of 700 ms. All other spectra used for signal assignment in CDCl3 were recorded on 500 MHz Bruker Avance NEO with a BBFO SmartProbe. […]

In the case of `Cc1ncsc1-c1ccc(CNC(=O)[C@@H]2C[C@@H](O)CN2C(=O)[C@@H](NC(=O)CCCCCOCCOCCCCCC(=O)Nc2cccc3c2C(=O)N(C2CCC(=O)NC2=O)C3=O)C(C)(C)C)cc1` (stereo partly drawn) [14a], the “ANMR N(1)-H” value was 0.16, the “Δδ N(1)-H” value turned out to be 1.16 ppm and the “Δδ N(2)-H” value amounted to 0.15 ppm.

The values above are taken from PMC12022980, “Rational Design of PROTAC Linkers Featuring Ferrocene as a Molecular Hinge to Enable Dynamic Conformational Changes” (Journal of the American Chemical Society, 2025).
